Results from the supplement of paper PMC10307832.

Columns and labels:
Experiment in all cases: relative viability (nuclei count vs DMSO), 5 days (fraction); higher = more cells survive
201T = system: 201T
In short: (§1)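 Dosing by pin tool came one day after lung cancer cell lines were seeded in 1536-well plates, using either one drug or a fixed anchor-drug dose plus five library-drug doses (not always all listed) in √10 steps. After 5 days, nuclei were counted on 4× images. Relative viability is treated-well nuclei count divided by vehicle-well nuclei count, and values are medians of duplicate plates.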

COR-L23 = system: COR-L23
In short: as §1

EPLC-272H = system: EPLC-272H
In short: as §1

H3255 = system: H3255
In short: as §1

HCC-15 = system: HCC-15
In short: as §1

LOU-NH91 = system: LOU-NH91
In short: as §1

NCI-H1563 = system: NCI-H1563
In short: as §1

NCI-H1650 = system: NCI-H1650
In short: as §1

NCI-H1734 = system: NCI-H1734
In short: as §1

NCI-H1793 = system: NCI-H1793
In short: as §1

NCI-H2023 = system: NCI-H2023
In short: as §1

NCI-H2170 = system: NCI-H2170
In short: as §1

NCI-H2347 = system: NCI-H2347
In short: as §1

NCI-H2405 = system: NCI-H2405
In short: as §1

NCI-H3122 = system: NCI-H3122
In short: as §1

NCI-H322M = system: NCI-H322M
In short: as §1

NCI-H441 = system: NCI-H441
In short: as §1

NCI-H520 = system: NCI-H520
In short: as §1

NCI-H647 = system: NCI-H647
In short: as §1

PC-14 = system: PC-14
In short: as §1

UMC-11 = system: UMC-11
In short: as §1

`Cc1sc2c(c1C)C(c1ccc(Cl)cc1)=N[C@@H](CC(=O)OC(C)(C)C)c1nnc(C)n1-2` [JQ1] + CS(=O)(=O)N1CCN(Cc2cc3nc(-c4cccc5[nH]ncc45)nc(N4CCOCC4)c3s2)CC1 [Pictilisib] (partner 1 µM) showed a relative viability (201T; first compound 0.04 µM) of 0.656, a relative viability (201T; first compound 0.1265 µM) of 0.644 and a relative viability (201T; first compound 0.4 µM) of 0.519. The relative viability (201T; first compound 1.265 µM) was 0.474, the relative viability (201T; first compound 4 µM) was 0.399 and the relative viability (COR-L23; first compound 0.04 µM) was 0.805. For the same molecule, the relative viability (COR-L23; first compound 0.1265 µM) was 0.692, the relative viability (COR-L23; first compound 0.4 µM) was 0.524 and the relative viability (COR-L23; first compound 1.265 µM) was 0.3. For the same molecule, the relative viability (COR-L23; first compound 4 µM) was 0.202, the relative viability (EPLC-272H; first compound 0.04 µM) was 0.298 and the relative viability (EPLC-272H; first compound 0.1265 µM) was 0.326. For the same molecule, the relative viability (EPLC-272H; first compound 0.4 µM) was 0.301, the relative viability (EPLC-272H; first compound 1.265 µM) was 0.223 and the relative viability (EPLC-272H; first compound 4 µM) was 0.184. For the same molecule, the relative viability (H3255; first compound 0.04 µM) was 0.468, the relative viability (H3255; first compound 0.1265 µM) was 0.464 and the relative viability (H3255; first compound 0.4 µM) was 0.552. It also gave a relative viability (H3255; first compound 1.265 µM) of 0.381, a relative viability (H3255; first compound 4 µM) of 0.338 and a relative viability (HCC-15; first compound 0.04 µM) of 0.67. The relative viability (HCC-15; first compound 0.4 µM) was 0.663, the relative viability (HCC-15; first compound 1.265 µM) was 0.366 and the relative viability (HCC-15; first compound 4 µM) was 0.343. For the same molecule, the relative viability (LOU-NH91; first compound 0.04 µM) was 0.529, the relative viability (LOU-NH91; first compound 0.1265 µM) was 0.545 and the relative viability (LOU-NH91; first compound 0.4 µM) was 0.463. It also gave a relative viability (LOU-NH91; first compound 1.265 µM) of 0.419, a relative viability (LOU-NH91; first compound 4 µM) of 0.354 and a relative viability (NCI-H1563; first compound 0.04 µM) of 0.606. For the same molecule, the relative viability (NCI-H1563; first compound 0.1265 µM) was 0.645, the relative viability (NCI-H1563; first compound 0.4 µM) was 0.611 and the relative viability (NCI-H1563; first compound 1.265 µM) was 0.622. For the same molecule, the relative viability (NCI-H1563; first compound 4 µM) was 0.638, the relative viability (NCI-H1650; first compound 0.04 µM) was 0.625 and the relative viability (NCI-H1650; first compound 0.1265 µM) was 0.445. The relative viability (NCI-H1650; first compound 0.4 µM) was 0.286, the relative viability (NCI-H1650; first compound 1.265 µM) was 0.122 and the relative viability (NCI-H1650; first compound 4 µM) was 0.169. It also gave a relative viability (NCI-H1734; first compound 0.04 µM) of 0.466, a relative viability (NCI-H1734; first compound 0.1265 µM) of 0.444 and a relative viability (NCI-H1734; first compound 0.4 µM) of 0.503. For the same molecule, the relative viability (NCI-H1734; first compound 1.265 µM) was 0.296, the relative viability (NCI-H1734; first compound 4 µM) was 0.327 and the relative viability (NCI-H1793; first compound 0.04 µM) was 0.434. It also gave a relative viability (NCI-H1793; first compound 0.1265 µM) of 0.391, a relative viability (NCI-H1793; first compound 0.4 µM) of 0.564 and a relative viability (NCI-H1793; first compound 1.265 µM) of 0.339. The relative viability (NCI-H1793; first compound 4 µM) was 0.453, the relative viability (NCI-H2023; first compound 0.04 µM) was 0.234 and the relative viability (NCI-H2023; first compound 0.1265 µM) was 0.268. It also gave a relative viability (NCI-H2023; first compound 0.4 µM) of 0.196, a relative viability (NCI-H2023; first compound 1.265 µM) of 0.161 and a relative viability (NCI-H2023; first compound 4 µM) of 0.156. It also gave a relative viability (NCI-H2170; first compound 0.04 µM) of 0.293, a relative viability (NCI-H2170; first compound 0.1265 µM) of 0.292 and a relative viability (NCI-H2170; first compound 0.4 µM) of 0.261. For the same molecule, the relative viability (NCI-H2170; first compound 1.265 µM) was 0.188, the relative viability (NCI-H2170; first compound 4 µM) was 0.152 and the relative viability (NCI-H2347; first compound 0.04 µM) was 0.791. The relative viability (NCI-H2347; first compound 0.1265 µM) was 0.529, the relative viability (NCI-H2347; first compound 0.4 µM) was 0.542 and the relative viability (NCI-H2347; first compound 1.265 µM) was 0.334. The relative viability (NCI-H2347; first compound 4 µM) was 0.372, the relative viability (NCI-H2405; first compound 0.04 µM) was 0.536 and the relative viability (NCI-H2405; first compound 0.4 µM) was 0.405. For the same molecule, the relative viability (NCI-H2405; first compound 1.265 µM) was 0.263, the relative viability (NCI-H2405; first compound 4 µM) was 0.221 and the relative viability (NCI-H3122; first compound 0.04 µM) was 0.576. It also gave a relative viability (NCI-H3122; first compound 0.1265 µM) of 0.624, a relative viability (NCI-H3122; first compound 0.4 µM) of 0.675 and a relative viability (NCI-H3122; first compound 1.265 µM) of 0.425. The relative viability (NCI-H3122; first compound 4 µM) was 0.445, the relative viability (NCI-H322M; first compound 0.04 µM) was 0.478 and the relative viability (NCI-H322M; first compound 0.1265 µM) was 0.559. The relative viability (NCI-H322M; first compound 0.4 µM) was 0.439, the relative viability (NCI-H322M; first compound 1.265 µM) was 0.398 and the relative viability (NCI-H322M; first compound 4 µM) was 0.358. For the same molecule, the relative viability (NCI-H441; first compound 0.04 µM) was 0.475, the relative viability (NCI-H441; first compound 0.1265 µM) was 0.561 and the relative viability (NCI-H441; first compound 0.4 µM) was 0.38. For the same molecule, the relative viability (NCI-H441; first compound 1.265 µM) was 0.234, the relative viability (NCI-H441; first compound 4 µM) was 0.195 and the relative viability (NCI-H520; first compound 0.04 µM) was 0.282. The relative viability (NCI-H520; first compound 0.1265 µM) was 0.283, the relative viability (NCI-H520; first compound 0.4 µM) was 0.253 and the relative viability (NCI-H520; first compound 1.265 µM) was 0.174. It also gave a relative viability (NCI-H520; first compound 4 µM) of 0.214, a relative viability (NCI-H647; first compound 0.04 µM) of 0.428 and a relative viability (NCI-H647; first compound 0.1265 µM) of 0.3. It also gave a relative viability (NCI-H647; first compound 0.4 µM) of 0.305, a relative viability (NCI-H647; first compound 1.265 µM) of 0.188 and a relative viability (NCI-H647; first compound 4 µM) of 0.15. The relative viability (PC-14; first compound 0.04 µM) was 0.631, the relative viability (PC-14; first compound 0.1265 µM) was 0.498 and the relative viability (PC-14; first compound 0.4 µM) was 0.445. For the same molecule, the relative viability (PC-14; first compound 1.265 µM) was 0.243, the relative viability (PC-14; first compound 4 µM) was 0.122 and the relative viability (UMC-11; first compound 0.04 µM) was 0.724. For the same molecule, the relative viability (UMC-11; first compound 0.1265 µM) was 0.664, the relative viability (UMC-11; first compound 0.4 µM) was 0.338 and the relative viability (UMC-11; first compound 1.265 µM) was 0.209. For the same molecule, the relative viability (UMC-11; first compound 4 µM) was 0.192.
